Data from PMC7529893, “Structural basis for substrate recognition and chemical inhibition of oncogenic MAGE ubiquitin ligases” (Nature Communications, 2020).

Each molecule was assayed against T1, MAGE-A11:PCF11 interaction (GST-MAGE-A11 and FAM-PCF11_4) (Homo sapiens, UniProt P43364) (assay: TR-FRET primary / single point screen at 15 µM). Settings: single point TR-FRET screening of 797 quinoline compounds against MAGE-A11:PCF11.
T1 construct: GST-MAGE-A11 MHD (human MAGE-A11 MHD amino acid 218-429); made in house; host or cells: E. coli BL21(DE3)
T1 sequence (P43364 218-429): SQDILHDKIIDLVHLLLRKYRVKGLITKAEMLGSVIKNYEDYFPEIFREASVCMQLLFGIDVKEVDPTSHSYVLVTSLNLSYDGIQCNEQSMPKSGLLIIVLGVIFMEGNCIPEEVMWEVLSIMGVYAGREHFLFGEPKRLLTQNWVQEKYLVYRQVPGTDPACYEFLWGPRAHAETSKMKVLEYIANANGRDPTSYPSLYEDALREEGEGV
Assay type: binding
Protocol: The TR-FRET assay buffer with a formula of 50 mM Tris pH 7.5, 20 mM MgCl2, 0.1 mg/ml BSA and 1 mM DTT was freshly prepared before each experiment. All TR-FRET assays were performed in black 384-well plates with 20 µl/well assay volume in the TR-FRET assay buffer at room temperature (~25 °C). All peptides or compounds were solubilized in DMSO. To test the competitive activity of peptides or compounds against the interaction between GST-MAGE-A11 MHD and FAM-PCF11_4 peptide, 10 µl/well peptide or compound at specified concentration was dispensed into a black 384-well low volume plate, followed by 5 µl/well FAM-PCF11_4 (800 nM), 5 µl/well Tb-anti-GST (20 nM), and GST-MAGE-A11 MHD (20 nM). The assay components in each well was then mixed by shaking the plate on an IKA MTS 2/4 digital microtiter plate shaker (IKA Works; Wilmington, NC, USA) for 1 min. The plate was further centrifuged in an Eppendorf 5810 centrifuge with an A-4-62 swing-bucket rotor (Eppendorf AG, Hamburg, Germany) at 201 g for 30 s. The plate was then incubated for 90 min with a lid to avoid light exposure to the assay components. After incubation, the fluorescent emission signals at 520 nm and 490 nm channels of individual wells were measured with a PHERAstar FS plate reader (BMG Labtech; Durham, NC, USA) by using a 340 nm excitation filter, 100 µs delay time, and 200 µs integration time. The TR-FRET fluorescence emission ratio (TR-FRET signal) for each well was presented as 10,000 × 520 nm/490 nm, which was used directly for curve fitting, or further converted to %Inhibition based on the respective positive and negative controls. The graphic software GraphPad Prism 4.81 (GraphPad Software; La Jolla, CA, USA) was used to generate curves and derive IC50 values of tested peptides or compounds, if applicable. TR-FRET screen for identifying MAGE-A11 small molecule inhibitors was performed as follows. The primary one-concentration screening and subsequent 10 or 20-concentration dose-response tests were accomplished with an automated High Throughput Screening system (HighRes Biosolutions, Beverly, MA)[30]. In the primary screening, 15 µl/well FAM-PCF11_4 (267 nM) was first dispensed with a Multidrop Combi Reagent Dispenser (Thermo Fisher Scientific, Waltham, MA) to black 384-well low-volume assay plates. The plates were spun down with a Velocity11 VSpin microplate centrifuge (Agilent Technologies, Santa Clara, CA). In total, 30 nl/well of 10 mM compound/DMSO solutions, or DMSO alone, were transferred from compound plates (the St. Jude FDA drug and bioactive library, Drug-like library and Lead-like library) or a control plate to the assay plates with a Pin Tool (V&P Scientific, San Diego, CA). The compounds were arrayed in columns 3–12 and columns 15–24 of compound plates. The controls were arrayed in columns 1, 2, 13, and 14 of a compound plate. In all, 5 µl/well Tb-anti-GST (20 nM) and GST-MAGE-A11 (20 nM) or 5 µl/well Tb-anti-GST (20 nM) alone was then dispensed to selected wells with a Multidrop Combi Reagent Dispenser. The final assay volume was 20 µl/well. […] The final tested compound concentration was 15 µM. The final FAM-PCF11_4 concentration was 200 nM and the final Tb-anti-GST concentration was 5 nM. The final GST-MAGE-A11 concentration was 5 nM except for those selected positive control wells in which GST-MAGE-A11 was not presented. The plates were then shaken with a big bear shaker (Big Bear Automation, Santa Clara, California) and spun down with the Velocity11 VSpin microplate centrifuge for 20 s. The plates were then incubated at room temperature in a Liconic incubator (Liconic US, Woburn, MA) for 90 min. The TR-FRET signals for individual wells were measured with a PHERAstar FS plate reader. The %Inhibition of each tested inhibitor was calculated by using Eq. 1. Those inhibitors with %Inhibition >30% in the primary screening were selected for further dose-response test, along with additional newly synthesized compounds. […]

percent inhibition (TR-FRET) | Structure (SMILES)
4.534 | CCOc1ccc2ncc(S(=O)(=O)c3ccccc3)c(N3CCN(CC)CC3)c2c1 [SJ000083959]
4.43 | CCN1CCN(c2c(S(=O)(=O)c3ccccc3)cnc3ccc(Cl)cc23)CC1 [SJ000083960]
0.2213 | CCN1CCN(c2c(S(=O)(=O)c3ccc(C)cc3)cnc3ccc(C)cc23)CC1 [SJ000083961]
2.377 | CCc1ccc2ncc(S(=O)(=O)c3ccc(C)cc3)c(N3CCN(CC)CC3)c2c1 [SJ000083962]
-3.917 | CCN1CCN(c2c(S(=O)(=O)c3ccc(C)cc3)cnc3ccc(OC)cc23)CC1 [SJ000083963]
-5.899 | CCOc1ccc2ncc(S(=O)(=O)c3ccc(C)cc3)c(N3CCN(CC)CC3)c2c1 [SJ000083964]
7.146 | CCN1CCN(c2c(S(=O)(=O)c3ccc(C)cc3)cnc3cc(OC)c(OC)cc23)CC1 [SJ000083965]
-4.358 | CCN1CCN(c2c(S(=O)(=O)c3ccc(C)cc3)cnc3ccc(Cl)cc23)CC1 [SJ000083966]
-3.0982 | CCN1CCN(c2c(S(=O)(=O)c3ccc(Cl)cc3)cnc3ccc(C)cc23)CC1 [SJ000083967]
-19.1318 | CCc1ccc2ncc(S(=O)(=O)c3ccc(Cl)cc3)c(N3CCN(CC)CC3)c2c1 [SJ000083968]
-4.989 | CCOc1ccc2ncc(S(=O)(=O)c3ccc(Cl)cc3)c(N3CCN(CC)CC3)c2c1 [SJ000083969]
-6.809 | CCN1CCN(c2c(S(=O)(=O)c3ccc(Cl)cc3)cnc3cc(OC)c(OC)cc23)CC1 [SJ000083970]
-6.389 | CCOc1ccc2ncc(S(=O)(=O)c3ccc(OC)cc3)c(N3CCN(CC)CC3)c2c1 [SJ000083971]
7.411 | CCN1CCN(c2c(S(=O)(=O)c3ccc(OC)cc3)cnc3cc(OC)c(OC)cc23)CC1 [SJ000083972]
-29.7042 | Cc1ccc2ncc(S(=O)(=O)c3ccccc3)c(N3CCN(c4ccccc4)CC3)c2c1 [SJ000083973]
-132.977 | COc1ccc2ncc(S(=O)(=O)c3ccccc3)c(N3CCN(c4ccccc4)CC3)c2c1 [SJ000083974]
-12.0602 | CCOc1ccc2ncc(S(=O)(=O)c3ccccc3)c(N3CCN(c4ccccc4)CC3)c2c1 [SJ000083975]
-31.1045 | O=S(=O)(c1ccccc1)c1cnc2ccc(F)cc2c1N1CCN(c2ccccc2)CC1 [SJ000083976]

Further lines, the molecule ahead of its results:

Structure (SMILES) | percent inhibition (TR-FRET)
CN(C)CCNc1c2c(nc3ccccc13)CCC2 [SJ000013622] | 3.285
O=C(O)CCCNC(=O)CNc1c2ccccc2nc2ccccc12 [SJ000016432] | 9.598
CC(Nc1c2ccccc2nc2ccccc12)C(=O)NC(CC(N)=O)C(=O)O (centres unmarked) [SJ000016433] | 22.7145
CCOC(=O)c1cnc2c(ccc3ccccc32)c1NCCN(C)C [SJ000019487] | 6.418
CCN(CC)CC(=O)Nc1c2c(nc3ccccc13)CCCC2 [SJ000019523] | 2.741
CCOC(=O)c1cnc2c(C)cc(Cl)cc2c1NCCN(C)C [SJ000027210] | 3.834
CCOC(=O)c1cnc2c(Cl)c(Cl)ccc2c1NCCN(C)C [SJ000027266] | 2.575
CCOC(=O)c1cnc2ccc(C)cc2c1NCCN1CCOCC1 [SJ000027268] | -0.3915
CCOC(=O)c1cnc2ccc(OCC)cc2c1NCCN(C)C [SJ000027288] | 10.6575
CCOC(=O)c1cnc2ccc(OCC)cc2c1NCCN1CCOCC1 [SJ000027289] | 5.291
CCOC(=O)c1cnc2ccc(Br)cc2c1NCCN1CCOCC1 [SJ000031339] | -47.2425
CCOC(=O)c1ccc2ncc(C(=O)OCC)c(NCCN3CCOCC3)c2c1 [SJ000031347] | 0.6542
CCOC(=O)c1cnc2c(C)c(Cl)ccc2c1NCCN(C)C [SJ000037393] | -1.333
CCOC(=O)c1cnc2c(C)cc(C)cc2c1NCCN(C)C [SJ000037396] | 4.92
CCc1nc2ccccc2c(NC(=O)CNC(C)(C)CC(C)(C)C)c1C [SJ000049110] | -0.6045
CCN(CC)CC(=O)Nc1c2c(nc3ccccc13)CCC2 [SJ000049655] | 0.6542
Cc1ccc2ncc(S(=O)(=O)c3ccccc3)c(N3CCN(C)CC3)c2c1 [SJ000083945] | -8.419
CCc1ccc2ncc(S(=O)(=O)c3ccccc3)c(N3CCN(C)CC3)c2c1 [SJ000083946] | -6.249
COc1ccc2ncc(S(=O)(=O)c3ccccc3)c(N3CCN(C)CC3)c2c1 [SJ000083947] | -2.0938
CCOc1ccc2ncc(S(=O)(=O)c3ccccc3)c(N3CCN(C)CC3)c2c1 [SJ000083948] | -3.938
CN1CCN(c2c(S(=O)(=O)c3ccccc3)cnc3ccc(F)cc23)CC1 [SJ000083949] | -11.5001
CN1CCN(c2c(S(=O)(=O)c3ccccc3)cnc3ccc(Cl)cc23)CC1 [SJ000083950] | -5.3743
COc1cc2ncc(S(=O)(=O)c3ccc(C)cc3)c(N3CCN(C)CC3)c2cc1OC [SJ000083951] | 1.3128
COc1ccc2ncc(S(=O)(=O)c3ccc(Cl)cc3)c(N3CCN(C)CC3)c2c1 [SJ000083952] | -3.658
COc1cc2ncc(S(=O)(=O)c3ccc(Cl)cc3)c(N3CCN(C)CC3)c2cc1OC [SJ000083953] | 4.674
CCc1ccc2ncc(S(=O)(=O)c3ccc(OC)cc3)c(N3CCN(C)CC3)c2c1 [SJ000083954] | -5.969
COc1ccc(S(=O)(=O)c2cnc3cc(OC)c(OC)cc3c2N2CCN(C)CC2)cc1 [SJ000083955] | 0.8227
CCN1CCN(c2c(S(=O)(=O)c3ccccc3)cnc3ccc(C)cc23)CC1 [SJ000083956] | -3.448
CCc1ccc2ncc(S(=O)(=O)c3ccccc3)c(N3CCN(CC)CC3)c2c1 [SJ000083957] | 3.238
CCN1CCN(c2c(S(=O)(=O)c3ccccc3)cnc3ccc(OC)cc23)CC1 [SJ000083958] | 0.1242

Same assay, conditions: single point TR-FRET screening of quinoline compounds against MAGE-A11:PCF11; 15 µM

percent inhibition (TR-FRET) | Structure (SMILES)
6.349 | Clc1ccc2c(NCCCNCc3ccco3)ccnc2c1 [SJ000000502]
24.0531 | CN(C)CCCNc1c2c(nc3ccccc13)CCC2 [SJ000029259]
14.9289 | CCOC(=O)c1cnc2c(C)cc(C)cc2c1NCCCN(C)C [SJ000037397]
16.7674 | CN(C)CCCNc1c2ccccc2nc2ccccc12 [SJ000044378]
20.1038 | NC(=O)CC(Nc1c2ccccc2nc2ccccc12)C(=O)O (centres unmarked) [SJ000044383]
